Measured values: BindingDB's records for doi:10.1021/acschembio.5b00452 (Oregon Health & Science University, 2015)

Target: T1, N-glycosylase/DNA lyase (Homo sapiens, UniProt O15527)
Test: Gel-based Cleavage Assay
Conditions: not given
Procedure: Substrate (5 µL, 50 nM) was added to bring the final volume to 10 µL. The reaction was incubated 30 min at 37 °C, quenched by the addition of 10 µL of formamide, and put on ice. […] Band intensities were quantified using the Image Studio Lite Software (LI-COR).

T1 sequence (O15527 whole entry): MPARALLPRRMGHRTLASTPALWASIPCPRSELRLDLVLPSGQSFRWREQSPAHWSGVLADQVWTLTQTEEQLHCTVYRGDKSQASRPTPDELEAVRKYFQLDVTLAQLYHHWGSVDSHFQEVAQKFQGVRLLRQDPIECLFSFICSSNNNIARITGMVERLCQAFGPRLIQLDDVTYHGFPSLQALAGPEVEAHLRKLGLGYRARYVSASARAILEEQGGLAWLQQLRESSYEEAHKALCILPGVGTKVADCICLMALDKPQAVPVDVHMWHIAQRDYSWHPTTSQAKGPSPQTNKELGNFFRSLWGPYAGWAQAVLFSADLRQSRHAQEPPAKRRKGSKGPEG

| IC50 [nM] | SMILES |
| --- | --- |
| > 50000 | NNC(=O)c1ccncc1 [4-pyridinecarbohydrazide(Isoniazid)] |
| 340 | O=C(NN=C1CCCCC1)c1cc2ccccc2cc1O [N'‐Cyclohexylidene‐3‐hydroxynaphthalene‐2‐carbohydrazide (0158)] |
| 220 | NNC(=O)c1sc2cccc(Cl)c2c1Cl [3,4‐Dichloro‐1‐benzothiophene‐2‐carbohydrazide (08)] |

Target: T1, N-glycosylase/DNA lyase
Test: Fluorescence-based Assay
Conditions: pH 7.5; 37 °C
Procedure: The fluorescence-based assay outlined in Figure 2 a was performed in black, low volume 384-well plates with a fi nal volume of 10 µL per well. Nine uL of assay buffer (20 mM Tris-HCl, 100 mM KCl, 0.1% BSA, 0.01% Tween-20, pH 7.5) was added toeach well, followed by the addition of 1 uL of DMSO (control) or 50 µM compound in DMSO. […] Control wells containing just substrate or just substrate + enzyme were used to calculate Z values for each plate.

| IC50 [nM] | SMILES |
| --- | --- |
| > 50000 | NNC(=O)c1ccncc1 [4-pyridinecarbohydrazide(Isoniazid)] |
| > 50000 | O=C(CCNNC(=O)c1ccncc1)NCc1ccccc1 [Nialamide] |
| 3780 | C=CCC/C(C)=N\NC(=O)c1cccc(Br)c1 [3‐Bromo‐N'‐[(2Z)‐hex‐5‐en‐2‐ylidene]benzohydrazide (0155)] |
| > 50000 | NC(=O)c1ccc(Br)cc1 [4-Bromo-benzamide] |
| 290 | O=C(NN=C1CCCCC1)c1cc2ccccc2cc1O [N'‐Cyclohexylidene‐3‐hydroxynaphthalene‐2‐carbohydrazide (0158)] |
| 7170 | C/C(=N\NC(=O)c1cc2ccccc2cc1O)c1ccc2c(c1)OCO2 [N'‐[(1E)‐1‐(2H‐1,3‐benzodioxol‐5‐yl)ethylidene]‐3‐hydroxynaphthalene‐2‐carbohydrazide (0179)] |
| 390 | NNC(=O)c1ccc(Br)cc1 [Benzoylhydrazine, P‐bromo (0151-Hy)] |
| > 50000 | NNc1nncc2ccccc12 [NSC_3637] |
| > 50000 | Cc1cc(C(=O)NNCc2ccccc2)no1 [ISOCARBOXAZID] |
| 300 | NNC(=O)c1sc2ccccc2c1Cl [3‐Chloro‐1‐benzothiophene‐2‐carbohydrazide (O8-Cl)] |

More lines, now with the values behind:

| SMILES | IC50 [nM] |
| --- | --- |
| NNC(=O)COc1cccc2ccccc12 [2‐(Naphthalen‐1‐yloxy)acetohydrazide (040)] | 1560 |
| COc1cc(C)c(S(=O)(=O)n2cc(C)nc2-c2ccccc2)cc1C [1‐(4‐Methoxy‐2,5‐dimethylbenzenesulfonyl)‐4‐methyl‐2‐phenylimidazole (0105)] | 4150 |
| CCCC/C(C)=N\NC(=O)c1cccc(Br)c1 [3‐Bromo‐N'‐[(2Z)‐hexan‐2‐ylidene]benzohydrazide (0156)] | 2130 |
| CC(Oc1cccc(Cl)c1)C(=O)NN (stereo not given) [2‐(3‐Chlorophenoxy)propanehydrazide (01)] | 3380 |
| Cc1cc(OCC(=O)NN)cc(C)c1Cl [2‐(4‐Chloro‐3,5‐dimethylphenoxy)acetohydrazide (0159)] | 1530 |
| CCCN1CCC(=NNC(=O)c2ccc(Cl)cc2Cl)CC1 [2,4‐Dichloro‐N'‐(1‐propylpiperidin‐4‐ ylidene)benzohydrazide (0181)] | 4560 |
| NNC(=O)c1sc2cccc(Cl)c2c1Cl [3,4‐Dichloro‐1‐benzothiophene‐2‐carbohydrazide (08)] | 350 |
